Measured values published in patent publication US20220033734A1, “FABRIC CONDITIONER COMPOSITIONS” (Conopco, Inc., d/b/a UNILEVER, priority 2018, published 2022).

Tested on: Gram-negative non-fermenting bacteria: B. cepacia, P. aeruginosa, Strenotrophomonas sp
Test: Modified challenge test in fabric conditioner, Total Viable Count pour plate: Gram-negative non-fermenting bacteria
Assay type: cell-based
Settings: overall statement on the challenge tests of Tables 3 and 4
Experimental: Water was heated to ˜45° C., the Cetearyl alcohol was added followed by the minors. A premix of melted quaternary ammonium active was then added and mixed. The formulation was then cooled to ˜35° C. and any remaining minors added.
Itaconic acid, lactic acid and citric acid were purchased from Sigma-Aldrich. Samples of unpreserved fabric conditioner were dosed with itaconic acid, citric acid or lactic acid separately, according to Tables 3 and 4. Each dosed product was adjusted to pH 5 using 50% sodium hydroxide (Sigma-Aldrich). An unpreserved sample was kept as a control.
A modified challenge test method was performed on samples as defined in […]. The microbial compositions comprising the bacteria listed in Tables 2 and 3 were produced with an inoculum level of 5×10^7 CFU/G in sodium chloride.
The microbial compositions were added to each fabric conditioner formulation at a ratio of 1:10 (by weight) microbial composition to fabric conditioner formulation. […]
Both the inoculum level and the level of microorganism within each sample was quantified using a Total Viable Count (TVC) pour plate method after contact times as indicated in data tables. […] Visible colonies were counted with the aid of a Quebec Colony Counter and recorded for analysis against the challenge test criteria.

Compound: C=C(CC(=O)O)C(=O)O [itaconic acid]
- Preservation performance compared with other systems: out performed citric acid, lactic acid and unpreserved systems
